In PubChem BioAssay AID180 (DTP/NCI, 2004) one finds T/C data, which are given here for 16 compounds.

Several values for one entry are separate records, joined by “and”; a condition that tells them apart may be missing. Equal entries are not always repeated.

The subject of the test is BDF1 mice, Adenocarcinoma 755 s.c., tumor weight T/C. Put plainly: NCI In Vivo Anticancer Drug Screen. Data for tumor model Adenocarcinoma 755 (subcutaneous) in B6D2F1 (BDF1) mice. The settings on record: endpoint: mean tumor weight, schedule: Q01DX011 (ip), higher = larger tumour. In a few lines: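 Values express treated (T) relative to vehicle-dosed control (C) animals, based on survival or tumour size measured after compound treatment of mice bearing a transplanted tumour.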

The mark [1] stands for this setting: dose: 12.5 mg/kg/injection, vehicle: methylcellulose (MC).
Where [2] appears, read: dose: 0.5 mg/kg/injection, vehicle: carboxymethylcellulose (CMC).
Where [3] appears, read: dose: 1.0 mg/kg/injection, vehicle: carboxymethylcellulose (CMC).
The mark [4] stands for this setting: dose: 2.0 mg/kg/injection, vehicle: carboxymethylcellulose (CMC).
Setting [5] is: dose: 25.0 mg/kg/injection, vehicle: methylcellulose (MC).
Where [6] appears, read: dose: 25.0 mg/kg/injection, vehicle: saline.
[7] abbreviates: dose: 50.0 mg/kg/injection, vehicle: methylcellulose (MC).
Where [8] appears, read: dose: 100.0 mg/kg/injection, vehicle: methylcellulose (MC).

In the case of `CNC(=O)Cc1ccccc1`, the T/C is 70 % of control (dose: 125.0 mg/kg/injection, vehicle: water); 63 % of control (dose: 250.0 mg/kg/injection, vehicle: water); 30 % of control (dose: 500.0 mg/kg/injection, vehicle: water).

Turning to `N#CSc1ncnc2nc[nH]c12`, the T/C by setting is: (dose: 0.4 mg/kg/injection, vehicle: water) 67 % of control; (dose: 1.0 mg/kg/injection, vehicle: alkali diluted with saline) 20 % of control and 33 % of control; (dose: 1.0 mg/kg/injection, vehicle: saline) 10 % of control; (dose: 1.3 mg/kg/injection, vehicle: water) 8 % of control; (dose: 1.75 mg/kg/injection, vehicle: water) 4 % of control; (dose: 2.0 mg/kg/injection, vehicle: alkali diluted with saline) 1 % of control and 11 % of control. Moreover, the T/C is 1 % of control (dose: 2.0 mg/kg/injection, vehicle: saline); 2 % of control (dose: 4.0 mg/kg/injection, vehicle: alkali diluted with saline); 1 % of control (dose: 4.0 mg/kg/injection, vehicle: saline); 1 % of control (dose: 7.0 mg/kg/injection, vehicle: water); 1 % of control (dose: 8.0 mg/kg/injection, vehicle: saline).

With `O=C1NC(=O)c2cc([N+](=O)[O-])cc3cccc1c23`, the T/C runs as follows: (dose: 85.0 mg/kg/injection, vehicle: methylcellulose (MC)) 104 % of control; (dose: 680.0 mg/kg/injection, vehicle: methylcellulose (MC)) 89 % of control.

On to `CC(=O)Nc1nc(SCc2ccccc2)c2[nH]cnc2n1`, for which the T/C under setting [1] was 8 % of control.

For `CCSc1ncc(Br)c(Sc2nc(N)nc3nc[nH]c23)n1`, the T/C by setting is: under setting [2], 69 % of control; (dose: 0.5 mg/kg/injection, vehicle: methylcellulose (MC)) 68 % of control; under setting [3], 17 % of control and 30 % of control; (dose: 1.0 mg/kg/injection, vehicle: methylcellulose (MC)) 37 % of control; (dose: 1.5 mg/kg/injection, vehicle: carboxymethylcellulose (CMC)) 18 % of control; under setting [4], 57 % of control. The T/C by setting is: (dose: 3.0 mg/kg/injection, vehicle: carboxymethylcellulose (CMC)) 3 % of control and 5 % of control and 23 % of control; (dose: 4.0 mg/kg/injection, vehicle: carboxymethylcellulose (CMC)) 2 % of control; (dose: 6.0 mg/kg/injection, vehicle: carboxymethylcellulose (CMC)) 2 % of control; (dose: 8.0 mg/kg/injection, vehicle: carboxymethylcellulose (CMC)) 15 % of control; (dose: 12.0 mg/kg/injection, vehicle: carboxymethylcellulose (CMC)) 3 % of control.

As for `CCC1=C(c2cc(Cl)c3ccccc3c2OCC(=O)O)OC(CC)(C(=O)c2cc(Cl)c3ccccc3c2OCC(=O)O)CC1` (configuration not stated), the T/C (dose: 30.0 mg/kg/injection, vehicle: alkali diluted with saline) is 152 % of control.

For `O=[As]O`, the T/C by setting is: (dose: 0.12 mg/kg/injection, vehicle: carboxymethylcellulose (CMC)) 116 % of control; (dose: 0.25 mg/kg/injection, vehicle: carboxymethylcellulose (CMC)) 86 % of control; under setting [2], 98 % of control; under setting [3], 77 % of control; (dose: 1.63 mg/kg/injection, vehicle: carboxymethylcellulose (CMC)) 70 % of control; under setting [4], 19 % of control. The T/C is 66 % of control (dose: 2.0 mg/kg/injection, vehicle: methylcellulose (MC)); 124 % of control (dose: 3.15 mg/kg/injection, vehicle: carboxymethylcellulose (CMC)); 72 % of control (dose: 3.25 mg/kg/injection, vehicle: carboxymethylcellulose (CMC)); 21 % of control (dose: 5.0 mg/kg/injection, vehicle: carboxymethylcellulose (CMC)); 52 % of control (dose: 5.0 mg/kg/injection, vehicle: methylcellulose (MC)); 67 % of control (dose: 6.3 mg/kg/injection, vehicle: carboxymethylcellulose (CMC)). For the same compound, the T/C reads like this: (dose: 8.66 mg/kg/injection, vehicle: carboxymethylcellulose (CMC)) 63 % of control and 70 % of control; (dose: 12.6 mg/kg/injection, vehicle: carboxymethylcellulose (CMC)) 67 % of control; (dose: 13.0 mg/kg/injection, vehicle: carboxymethylcellulose (CMC)) 28 % of control and 35 % of control.

On to `CCSc1ncnc2c1ncn2C1OC(CO)C(O)C1O` (configuration not stated), for which the T/C is, setting by setting: (dose: 6.25 mg/kg/injection, vehicle: saline) 96 % of control; under setting [1], 53 % of control; (dose: 12.5 mg/kg/injection, vehicle: saline) 49 % of control; under setting [5], 27 % of control; under setting [6], 14 % of control; under setting [7], 10 % of control. In addition, where the note is “dose: 50.0 mg/kg/injection, vehicle: saline”, the T/C was 4 % of control.

On to `CC1CC(C)C(=O)C(C(=O)CC2CC(=O)NC(=O)C2)C1` (configuration not stated), for which the T/C (dose: 125.0 mg/kg/injection, vehicle: carboxymethylcellulose (CMC)) is 67 % of control.

For the compound `O=S(=O)(NCc1ccccc1)c1ncnc2nc[nH]c12`, the T/C reads like this: (dose: 12.5 mg/kg/injection, vehicle: carboxymethylcellulose (CMC)) 73 % of control; (dose: 25.0 mg/kg/injection, vehicle: carboxymethylcellulose (CMC)) 3 % of control; (dose: 50.0 mg/kg/injection, vehicle: carboxymethylcellulose (CMC)) 1 % of control.

Turning to `Cc1cccc(CSc2nc(N)nc3nc[nH]c23)n1`, the T/C (dose: 3.9 mg/kg/injection, vehicle: methylcellulose (MC)) was 17 % of control; the T/C (dose: 7.8 mg/kg/injection, vehicle: methylcellulose (MC)) was 20 % of control; the T/C (dose: 15.6 mg/kg/injection, vehicle: methylcellulose (MC)) is 5 % of control; the T/C (dose: 31.25 mg/kg/injection, vehicle: methylcellulose (MC)) was 1 % of control.

For `c1nc2c3c(n1)ncn3CCN2`, the T/C reads like this: under setting [6], 85 % of control; (dose: 75.0 mg/kg/injection, vehicle: saline) 74 % of control; (dose: 225.0 mg/kg/injection, vehicle: saline) 99 % of control.

Take `CCN(CC)C(=O)CSc1nc(N)nc2nc[nH]c12`: the T/C is 45 % of control under setting [5]; 12 % of control under setting [7]; 10 % of control under setting [8]; 3 % of control and 13 % of control (dose: 200.0 mg/kg/injection, vehicle: methylcellulose (MC)); 4 % of control (dose: 400.0 mg/kg/injection, vehicle: methylcellulose (MC)).

For `Nc1nc(SCc2cccc(Br)c2)c2ncn(C3OC(CO)C(O)C3O)c2n1` (configuration not stated), the T/C reads like this: (dose: 1.5 mg/kg/injection, vehicle: methylcellulose (MC)) 84 % of control; (dose: 3.1 mg/kg/injection, vehicle: methylcellulose (MC)) 62 % of control; (dose: 6.2 mg/kg/injection, vehicle: methylcellulose (MC)) 12 % of control and 24 % of control; under setting [1], 1 % of control; under setting [5], 2 % of control.

Take `CCC(C)C(N=C1N=CNC2=NC=NC12)C(=O)O` (configuration not stated): the T/C is 108 % of control (dose: 12.0 mg/kg/injection, vehicle: methylcellulose (MC)); 106 % of control under setting [5]; 80 % of control under setting [7]; 98 % of control under setting [8].

Regarding `O=[N+]([O-])c1cc([N+](=O)[O-])c(NN(c2ccccc2)c2ccccc2)c([N+](=O)[O-])c1`, the T/C (dose: 25.0 mg/kg/injection, vehicle: other) was 86 % of control.

Broadly, the T/C is the result in the treated group divided by that in the control group, in per cent.
